In experiment [1] the target is Epidermal growth factor receptor (Homo sapiens, UniProt P00533). The experiment is classed as single protein.
Description: Inhibition of recombinant wild type EGFR (696 to C-terminal residues) (unknown origin) preincubated for 30 mins followed by poly (Glu-Tyr) biotinylated peptide substrate addition measured after 30 mins in presence of ATP by ELISA
Experiment [2] deals with Epidermal growth factor receptor (Homo sapiens, UniProt P00533, L858R/T790M). The experiment in a line: Inhibition of recombinant EGFR (unknown origin) T790M/L858R double mutant preincubated for 30 mins followed by poly (Glu-Tyr) biotinylated peptide substrate addition measured after 30 mins in presence of ATP by ELISA.
Epidermal growth factor receptor (Homo sapiens, UniProt P00533, L858R/T790M), sequence (P00533 25-1210 T790M/L858R limits assumed): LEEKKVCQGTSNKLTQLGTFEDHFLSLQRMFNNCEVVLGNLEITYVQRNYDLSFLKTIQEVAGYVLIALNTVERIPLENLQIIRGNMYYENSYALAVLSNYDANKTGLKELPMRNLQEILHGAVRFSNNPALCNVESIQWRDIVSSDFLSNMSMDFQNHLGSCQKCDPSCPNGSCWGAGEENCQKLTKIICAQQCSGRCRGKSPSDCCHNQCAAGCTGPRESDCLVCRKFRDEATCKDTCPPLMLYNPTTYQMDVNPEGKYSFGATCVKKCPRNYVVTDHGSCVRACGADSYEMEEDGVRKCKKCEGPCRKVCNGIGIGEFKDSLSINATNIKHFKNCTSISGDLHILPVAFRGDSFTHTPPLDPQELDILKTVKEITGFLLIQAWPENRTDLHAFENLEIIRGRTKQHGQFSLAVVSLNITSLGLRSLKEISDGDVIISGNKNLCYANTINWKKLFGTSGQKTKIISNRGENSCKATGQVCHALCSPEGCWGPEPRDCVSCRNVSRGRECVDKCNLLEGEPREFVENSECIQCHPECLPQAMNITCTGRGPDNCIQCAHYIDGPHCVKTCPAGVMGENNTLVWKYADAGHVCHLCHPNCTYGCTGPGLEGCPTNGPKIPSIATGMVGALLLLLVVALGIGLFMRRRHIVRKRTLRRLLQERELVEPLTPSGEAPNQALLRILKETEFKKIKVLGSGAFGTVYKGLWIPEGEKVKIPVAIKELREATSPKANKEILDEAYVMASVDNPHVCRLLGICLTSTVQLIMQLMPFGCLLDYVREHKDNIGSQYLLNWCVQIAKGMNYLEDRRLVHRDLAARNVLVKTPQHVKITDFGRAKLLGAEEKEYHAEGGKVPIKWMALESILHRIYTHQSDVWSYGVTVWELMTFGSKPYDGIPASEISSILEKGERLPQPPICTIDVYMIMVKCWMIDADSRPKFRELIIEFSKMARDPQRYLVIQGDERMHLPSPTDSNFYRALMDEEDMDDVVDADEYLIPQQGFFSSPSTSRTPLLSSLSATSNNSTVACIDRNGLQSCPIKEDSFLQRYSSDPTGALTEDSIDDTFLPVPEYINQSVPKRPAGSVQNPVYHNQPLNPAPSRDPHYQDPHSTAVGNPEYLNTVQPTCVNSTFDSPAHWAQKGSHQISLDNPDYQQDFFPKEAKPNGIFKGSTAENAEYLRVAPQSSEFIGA

Epidermal growth factor receptor (Homo sapiens, UniProt P00533), sequence (P00533 whole entry): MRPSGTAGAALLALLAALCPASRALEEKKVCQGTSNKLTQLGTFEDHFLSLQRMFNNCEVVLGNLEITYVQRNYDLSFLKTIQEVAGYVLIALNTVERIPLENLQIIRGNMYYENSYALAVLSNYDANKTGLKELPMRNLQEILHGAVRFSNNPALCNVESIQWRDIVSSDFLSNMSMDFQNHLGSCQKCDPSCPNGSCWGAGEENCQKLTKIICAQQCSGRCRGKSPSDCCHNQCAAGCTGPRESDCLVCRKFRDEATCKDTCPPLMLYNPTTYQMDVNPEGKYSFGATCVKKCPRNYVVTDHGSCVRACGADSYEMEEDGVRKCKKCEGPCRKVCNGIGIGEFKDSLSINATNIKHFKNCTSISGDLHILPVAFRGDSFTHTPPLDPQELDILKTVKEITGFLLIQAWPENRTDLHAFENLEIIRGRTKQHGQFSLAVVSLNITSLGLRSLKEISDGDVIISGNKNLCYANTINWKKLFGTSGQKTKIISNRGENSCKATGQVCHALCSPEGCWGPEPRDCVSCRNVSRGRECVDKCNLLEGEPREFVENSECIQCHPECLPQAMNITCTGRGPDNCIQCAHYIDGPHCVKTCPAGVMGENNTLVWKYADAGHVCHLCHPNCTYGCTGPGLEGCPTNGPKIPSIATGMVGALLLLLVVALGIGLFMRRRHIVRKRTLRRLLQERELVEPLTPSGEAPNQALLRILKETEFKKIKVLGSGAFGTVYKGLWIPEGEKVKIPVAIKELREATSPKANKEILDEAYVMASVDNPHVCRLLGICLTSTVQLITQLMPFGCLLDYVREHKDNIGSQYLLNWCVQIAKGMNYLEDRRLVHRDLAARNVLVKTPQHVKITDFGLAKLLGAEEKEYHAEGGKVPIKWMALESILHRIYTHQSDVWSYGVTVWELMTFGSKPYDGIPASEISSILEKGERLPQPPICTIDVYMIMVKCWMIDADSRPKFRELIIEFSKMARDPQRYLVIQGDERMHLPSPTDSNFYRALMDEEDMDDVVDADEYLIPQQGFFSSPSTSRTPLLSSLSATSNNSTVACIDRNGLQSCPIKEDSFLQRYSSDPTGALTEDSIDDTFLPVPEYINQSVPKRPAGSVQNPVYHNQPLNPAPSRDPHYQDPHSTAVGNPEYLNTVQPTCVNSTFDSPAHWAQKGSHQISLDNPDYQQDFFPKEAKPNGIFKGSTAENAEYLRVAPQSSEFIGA

As to `COc1ccc(-c2c3c4cc(OC)c(OCCCN(C)C)cc4oc(=O)c3n3ccc4cc(O)c(OC)cc4c23)cc1O`, the IC50 was 215 nM in experiment [1] and 188 nM in experiment [2].
Taken in the same sequence, the figures for `COc1ccc(-c2c3c4cc(OCCN(C)C)c(OCCN(C)C)cc4oc(=O)c3n3ccc4cc(O)c(OC)cc4c23)cc1O` were 191 nM and 233 nM.
Taken in the same sequence, the figures for `COc1ccc(-c2c3c4cc(OC)c(OCCNC(=N)N)cc4oc(=O)c3n3ccc4cc(O)c(OC)cc4c23)cc1O` were above 1000 nM and above 1000 nM.
For `COc1ccc(-c2c3c4cc(OCCCN5CCOCC5)c(OCCCN5CCOCC5)cc4oc(=O)c3n3ccc4cc(O)c(OC)cc4c23)cc1O`, the IC50 in experiment [1] and in experiment [2] was above 1000 nM in each case.
On to `COc1ccc(-c2c3c4cc(OC)c(OCCCNC(=N)N)cc4oc(=O)c3n3ccc4cc(O)c(OC)cc4c23)cc1O`, for which the IC50 in experiment [1] stood at 47 nM; in experiment [2], 39 nM.
Taken in the same sequence, the figures for `COc1ccc(-c2c3c4cc(OC)c(OCCN(C)C)cc4oc(=O)c3n3ccc4cc(O)c(OC)cc4c23)cc1O` were 595 nM and 560 nM.
The like results for `COc1ccc(-c2c3c4cc(OC)c(OC)cc4oc(=O)c3n3ccc4cc(O)c(OC)cc4c23)cc1O` were, in that order, above 1000 nM and above 1000 nM.
Regarding `COc1ccc(-c2c3c4cc(O)c(OCCCN(C)C)cc4oc(=O)c3n3ccc4cc(O)c(OC)cc4c23)cc1O`, the half-maximal inhibitory concentration (IC50) in experiment [1] was 47.8 nM; in experiment [2] it was 82.6 nM.
Taken in the same sequence, the figures for `COc1ccc(-c2c3c4cc(O)c(OC)cc4oc(=O)c3n3ccc4cc(O)c(OC)cc4c23)cc1O` were 249 nM and 397 nM.
Taken in the same sequence, the figures for `COc1ccc(-c2c3c4cc(OCCCN(C)C)c(OCCCN(C)C)cc4oc(=O)c3n3ccc4cc(O)c(OC)cc4c23)cc1O` were 31.8 nM and 8.9 nM.
The like results for `COc1ccc(-c2c3c4cc(OCCN(C)C)c(OC)cc4oc(=O)c3n3ccc4cc(O)c(OC)cc4c23)cc1O` were, in that order, 842 nM and above 1000 nM.

As a reminder, the IC50 is the midpoint of a concentration-inhibition curve.

(Values after ChEMBL document CHEMBL4177688, “Design, synthesis, and evaluation of A-ring-modified lamellarin N analogues as noncovalent inhibitors of the EGFR T790M/L858R mutant” (Bioorg Med Chem, 2017).)
